Source: US4284635A, “Analgesic 1,2,4,5-tetra-alkyl-4-arylpiperidines” (Eli Lilly and Company, priority 1978, dated 1981)

experiment: rat-tail jerk assay (rats subjected to a heat sensation); type: in vivo; details: subcutaneous
Text: The analgesic activity of a number of compounds provided by this invention has been determined in the standard rat-tail jerk assay and the mouse writhing assay. The results in the mouse writhing assay are presented as the effective dose in mg./kg. of the tested compound required to inhibit induced writhing in the test animals by fifty percent (ED50). Results are presented in Column II for both subcutaneous (S.C.) and oral (p.o.) administration of the test compound recited in Column I.
Column III presents the effects of the claimed compounds on rats subjected to a heat sensation. The compounds recited in column I were administered subcutaneously to the test animals. The test results are reported as the minimum effective dose (MED) of compound in mg./kg. needed to delay response to the pain stimulus by one second compared to control animals.

Row | Structure (SMILES) | Rat Tail Jerk MED 1 sec. (minimum effective dose needed to delay response to the pain stimulus by one second compared to control animals)
1 | CC1CC(C)(c2cccc(O)c2)C(C)CN1C (centres unmarked) [1,2,4,5-Tetramethyl-4-(3-hydroxyphenyl)piperidine] | 1 mg/kg
2 | COc1cccc(C2(C)CC(C)N(C)CC2C)c1 (centres unmarked) [1,2,4,5-Tetramethyl-4-(3-methoxyphenyl)piperidine] | 10 mg/kg
3 | CCCC1(c2cccc(OC)c2)CC(C)N(C)CC1C (centres unmarked) [1,2,5-Trimethyl-4-n-propyl-4-(3-methoxyphenyl)piperidine] | 2 mg/kg
4 | CCCC1(c2cccc(O)c2)CC(C)N(C)CC1C (centres unmarked) [1,2,5-trimethyl-4-n-propyl-4-(3-hydroxyphenyl)piperidine] | 20 mg/kg
5 | CCOC(=O)C1(c2ccccc2)CCN(C)CC1 [Meperidine, reference compound] | 3.0 mg/kg
